PMC8765320, “Identification of a Proteasome-Targeting Arylsulfonamide with Potential for the Treatment of Chagas’ Disease” (Antimicrobial Agents and Chemotherapy, 2022)
Like-named read-outs stand apart in the source and are kept apart here.

Experiments:
[1] = tested on: T. cruzi amastigotes within Vero cells; test: Drug sensitivity assay against T. cruzi-infected Vero cells (intracellular amastigotes); type: cell-based, Trypanosoma cruzi; conditions: for EC50: Trypanosoma cruzi, Vero
Method: The clonal Leishmania donovani cell line LdBOB (derived from MHOM/SD/62/1S-CL2D) was grown as either promastigotes or axenic amastigotes in media specific for each developmental stage, as previously described ([32]). T. cruzi epimastigotes from the Silvio strain (MHOM/BR/78/Silvio; clone X10/7A [33]) were grown at 28°C in RTH/FBS (RPMI 1640 medium supplemented with Trypticase, hemin, HEPES, and 10% heat-inactivated fetal calf serum (FCS) [Fisher Scientific]) ([34]). Bloodstream form T. brucei “single marker” S427 (T7RPOL TETR NEO) were cultured in the presence of G418 (15 μg ml^−1) at 37°C in HMI9-T media in the presence of 5% CO2. HepG2 cells (ECACC 85011430) were obtained from European Collection of Authenticated Cell Culture (ECACC). Cells were maintained in full growth medium (minimal essential medium [MEM] with GlutaMAX (Thermo Fisher), supplemented with 1% MEM nonessential amino acids (Sigma) and 10% heat-inactivated FBS and cultured at 37°C in the presence of 5% CO2. Cells were passaged twice weekly by detaching adherent cells with 0.05% trypsin/EDTA (Sigma) and diluted into fresh media. Cells were never grown beyond 80% confluence. Vero cells (African green monkey kidney cells; ECCAC 84113001) were maintained at 37°C, 5% CO2 in Dulbecco modified Eagle medium (DMEM; Lonza) supplemented with 10% FCS and subcultured every 2 days. T. cruzi metacyclic trypomastigotes were obtained from late-log-phase epimastigote cultures (initial inoculum, 10^6 ml^−1) after ca. 7 to 10 days at 28°C in RTH/FBS. Trypomastigote-rich cultures were incubated with Vero cells overnight at 37°C and 5% CO2 in DMEM/10% FCS. The following day, extracellular parasites were removed by washing the Vero cell monolayer three times. Infected monolayers were maintained at 37°C and in 5% CO2, DMEM/10% FCS was replaced every 48 h until the trypomastigotes reemerged from the Vero cells ([9]).
Drug sensitivity assays against T. cruzi-infected Vero cells were carried out as previously described ([37]); however, in this instance, assays were carried out in 96-well plates. Data were processed using GRAFIT (Erithacus software) and fitted to a two-parameter equation, as described above.

[2] = tested on: L. donovani axenic amastigote; test: L. donovani axenic amastigote drug sensitivity assay; type: cell-based; conditions: Leishmania donovani, weighted mean, n ≥ 3, read-out: Mean compound 1 EC50 ± SD
Method: L. donovani promastigote ([35]), axenic amastigote ([25]), and T. brucei bloodstream form ([36]) drug sensitivity assays were carried out as previously described. HepG2 monolayers were washed twice in PBS, detached with 0.05% trypsin/EDTA, and then diluted with fully supplemented MEM growth medium. Cells were pelleted at 80 × g for 5 min and resuspended in fully supplemented growth medium. Cells were seeded into 96-well plates (5 × 10^4/well) and allowed to adhere prior to exposure to test compounds. Plates were incubated at 37°C in the presence of 5% CO2 for 72 h. After incubation, resazurin (20 μl of a 2.5-mg/ml^−1 stock solution) was added to each well, followed by incubation for a further 2 h prior to fluorescence being read as described above.

[3] = tested on: cytosolic T. cruzi malic enzyme (cTcME; C4B63_28g106); test: Thermal proteome profiling, cTcME; type: binding, Trypanosoma cruzi; conditions: for ΔTm 1 / ΔTm 2: malic enzyme C4B63_28g106
Method: Aliquots of each lysate were then incubated at designated temperatures (33 to 69°C) and then, for each temperature, insoluble (denatured) proteins were removed. The resulting soluble protein samples were reduced, alkylated, and digested with trypsin prior to derivatization with tandem mass tags. Pooled peptides were fractionated by high-pressure liquid chromatography and analyzed by LC/MS-MS prior to identification and quantitation. The melting points of identified proteins were then established using the TPP software package. Full melt curves were established for 6,771 proteins, representing 39.4% coverage of the T. cruzi proteome.
T. cruzi (X10/7 strain) mid-log-phase epimastigotes (∼1 × 10^10) were harvested by centrifugation (1,912 × g, 15 min, 4°C) and washed with ice-cold PBS (1,912 × g, 5 min, 4°C); finally, the cell pellet was resuspended in 8 ml of ice-cold lysis buffer (1 mM EDTA, 1 mM dithiothreitol [DTT], 100 μM TLCK [Nα-p-tosyl-L-lysine chloromethyl ketone], and 1× Roche EDTA-free COmplete protease inhibitor cocktail in 50 mM potassium phosphate buffer [pH 7.4]). The cell suspension was submitted to three freeze-thaw cycles in a dry ice/ethanol bath to biologically inactivate the parasites and then submitted to cell disruption (Constant Systems, UK) at 30 kpsi. The resulting lysate was centrifuged (100,000 × g, 20 min, 4°C), the supernatant was collected, and the protein concentration was determined using a Bio-Rad protein assay.
Each 2-ml aliquot (drug and vehicle treated) was divided into 10 × 100-μl aliquots in 0.5-ml thin-walled PCR tubes, followed by incubation at a designated temperature (33, 37, 41, 45, 49, 53, 57, 61, 65, or 69°C) for 3 min, followed in turn by incubation at room temperature for 3 min before each sample was placed on ice. Each aliquot was centrifuged (100,000 × g, 20 min, 4°C), the supernatants were harvested, and the protein concentration was assessed.
All aspects of sample processing, peptide and protein identification and quantitation, and target identification were carried out as previously described ([15]). However, in this instance, proteins were identified by searching the MS and MS/MS data for the peptides against T. cruzi proteome Dm28c 2018 version 50 (https://tritrypdb.org/tritrypdb).

[4] = tested on: L. donovani, T. cruzi, and T. brucei; test: Phenotypic screening against three kinetoplastids; type: cell-based; conditions: range over all three kinetoplastids; read-out: EC50 values against the mammalian stages of these parasites
[5] = tested on: L. donovani intramacrophage; parameters: method as in Peña et al. (12); conditions: ref Peña et al. (12), read-out: Mean compound 1 EC50; cited from earlier work
CYP51 = tested on: CYP51; parameters: method as in PMID 25740547; conditions: cited from earlier work

COc1ccc(NS(=O)(=O)c2cc(-c3cc(C)n[nH]3)ccc2C)cc1OC [Compound 1]
EC50 ([1]; T. cruzi Intra-Vero, weighted mean, n ≥ 3, read-out: Mean compound 1 EC50 ± SD): 1300 ± 200 nM
EC50 ([1]; in Vero cells, cell line ME OE, (*) one biological replicate, read-out: EC50 values): 800 ± 70 nM
EC50 ([1]; in Vero cells, cell line RES 1, read-out: EC50 values): 10000 ± 5000 nM
EC50 ([1]; in Vero cells, cell line RES 5, read-out: EC50 values): > 50000 nM
EC50 ([1]; in Vero cells, cell line Wild-type, read-out: EC50 values): 1000 ± 200 nM
EC50 ([1]; in Vero cells, cell line β5 OE rescue R1, (*) one biological replicate, read-out: EC50 values): 3000 ± 200 nM
EC50 ([1]; in Vero cells, cell line β5 OE, read-out: EC50 values): 1000 ± 200 nM
EC50 ([1]; read-out: EC50 values, in Vero cells, cell line β4 F24L/I29M): > 23000 nM
EC50 ([1]; read-out: EC50 values, in Vero cells, cell line β5 D225N-OE, (*) one biological replicate): 12000 ± 1400 nM
fold change versus WT ([1]; in Vero cells, cell line ME OE): 1 fold
fold change versus WT ([1]; in Vero cells, cell line RES 1): 8 fold
fold change versus WT ([1]; in Vero cells, cell line RES 5): > 42 fold
fold change versus WT ([1]; in Vero cells, cell line Wild-type): 1 fold
fold change versus WT ([1]; in Vero cells, cell line β4 F24L/I29M): > 19 fold
fold change versus WT ([1]; in Vero cells, cell line β5 D225N-OE): 10 fold
fold change versus WT ([1]; in Vero cells, cell line β5 OE): 1 fold
fold change versus WT ([1]; in Vero cells, cell line β5 OE rescue R1): 2 fold
EC50 [2]: 700 ± 100 nM
increase in thermal stability of cTcME (mean ΔTm) ([3]; experiment 1, lysate, compound at 10× EC50 (20 μM)): 8.8 °C
ΔTm 1 ([3]; biological replicate 1): 8.6 °C
ΔTm 2 ([3]; biological replicate 1): 9.08 °C
ΔTm 1 ([3]; biological replicate 2): 5.6 °C
ΔTm 2 ([3]; biological replicate 2): 3.73 °C
EC50 [4]: 100 to 8000 nM
EC50 [5]: 8000 nM
CYP51 pIC50 (CYP51): 4.4
